In patent US4772587A, “Dipeptide derivative of fatty acid” (Suntory Limited, priority 1985, dated 1988):
Residues, ends and D or L forms follow the SMILES beside them. *: point of attachment. Oleoyl = CCCCCCCC/C=C\CCCCCCCC(=O)*

Key:
[1] = Solubility in organic solvents; assay type: physicochemical
Excerpt: All the compouds in Table 1 are oils which are soluble in CCl4, ether, CHCl3, CH2 Cl2, AcOEt and MeOH.

prolyl endopeptidase = prolyl endopeptidase (Elizabethkingia meningoseptica, UniProt P27028); test: Measurement of anti-prolyl endopeptidase activity (decomposition of Z-glycyl-proline-β-naphthylamide); assay type: biochemical; conditions: substrate Z-glycyl-proline-β-naphthylamide, phosphate buffer pH 7.0
Sequence of prolyl endopeptidase (P27028 21-705): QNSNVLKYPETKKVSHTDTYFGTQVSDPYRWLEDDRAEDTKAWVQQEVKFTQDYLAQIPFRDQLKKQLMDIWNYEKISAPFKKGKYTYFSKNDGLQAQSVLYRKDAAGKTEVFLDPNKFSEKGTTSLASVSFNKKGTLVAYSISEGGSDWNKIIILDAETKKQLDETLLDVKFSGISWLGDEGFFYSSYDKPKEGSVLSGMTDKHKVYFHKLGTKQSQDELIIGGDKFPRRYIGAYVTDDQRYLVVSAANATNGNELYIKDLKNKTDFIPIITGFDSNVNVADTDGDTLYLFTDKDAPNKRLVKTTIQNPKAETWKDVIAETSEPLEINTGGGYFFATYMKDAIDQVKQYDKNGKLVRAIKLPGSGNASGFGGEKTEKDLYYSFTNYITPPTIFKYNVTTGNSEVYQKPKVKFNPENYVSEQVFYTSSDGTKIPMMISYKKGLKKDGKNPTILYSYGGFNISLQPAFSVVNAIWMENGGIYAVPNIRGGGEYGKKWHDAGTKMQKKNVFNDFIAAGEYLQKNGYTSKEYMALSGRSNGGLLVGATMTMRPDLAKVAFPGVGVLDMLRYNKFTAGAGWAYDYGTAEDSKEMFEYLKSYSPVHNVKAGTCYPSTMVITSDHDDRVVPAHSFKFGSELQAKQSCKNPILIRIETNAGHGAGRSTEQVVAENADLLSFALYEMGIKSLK
Protocol: The method of Yoshimoto and Tsuru (T. Yoshimoto and D. Tsuru, Agr. Biol. Chem. 42, 2417, 1978) was used to measure the anti-prolyl endopeptidase activities of several compounds of the present invention. A mixture of 0.0025M Z-glycyl-proline-β-naphthylamide (0.25 ml), 0.1M phosphate buffer (pH, 7.0; 0.99 ml) and a solution of a particular anti-prolyl endopeptidase compound (0.01 ml) was incubated in a test tube at 37° C. for 3 minutes. Thereafter, 0.1 ml of a solution of prolyl endopeptidase (0.2 U/ml) was added and the mixture was heated at 35° C. for 10 minutes. After the reaction, 2.0 ml of Triton X-100 in 1M acetate buffer (pH, 4.0) was added to the reaction mixture until the final concentration of the surfactant was 10%. The mixture was left at room temperature for 15 minutes and the absorbance (a) at 410 nm was measured.
A sample for blind test was prepared by using the buffer instead of the anti-prolyl endopeptidase compound and its absorbance (b) was also measured. The percent inhibition of prolyl endopeptidase was calculated by the formula: ((b-a)/b)×100, and the amount of a specific compound to achieve 50% inhibition (IC50) was determined.

[2] = test system: experimental amnesia caused in rats by scopolamine; test: Preventive effect against experimental amnesia caused in rats by scopolamine (passive avoidance learning); assay type: in vivo, Wister male rats; conditions: sample 25 μg/kg i.p.; scopolamine 3 mg/kg i.p. after learning
Protocol: Several of the anti-prolyl endopeptidase compounds of the present invention were checked for their ability to prevent the inhibition of long-term memory fixation by scopolamine. Solutions of physiological saline (0.3 ml) that contained selected compounds of the present inventions in varying amounts ([…], 0.25 mg, 0.1 mg, 0.025 mg and 0.010 mg/kg) were administered intraperitoneally once a day to Wister male rats (100-120 g). One hour after the administration, electric shocks (1.7 mA) were applied to the rats so that they would acquire passive avoidance learning. Immediately thereafter, scopolamine was administered intraperitoneally to each rat in an amount of 3 mg per kg of body weight.
The result of the test was assessed both 24 hours and 48 hours after the administration of scopolamine. The number of amnesic rats and of sound rats was counted for each of the control group (rats to which the test compounds had not been administered but to which only scopolamine and physiological saline had been administered intraperitoneally and the treated group (rats to which both the test compound and scopolamine had been administered). The results are shown in Table 3.

ddY strain male mice = test: Anti-hypoxia action (survival time in desiccator evacuated to 180 mmHg); assay type: in vivo; conditions: for No. of survival/used (Drug): 30 minutes before evacuation to 180 mmHg
Protocol: The compounds of the present invention were checked for their anti-hypoxia action in ddY strain male mice (body weight: 25-34 g). Each of the treated groups consisted of 7 to 10 mice. Test samples were prepared by adding 2 to 3 drops of Tween 80® to physiological saline and suspending the respective compounds in the saline. The so conditioned test samples were administered (0.1 m 10 g) to each of the mice used.
At 30 minutes after the administration, each of the mice was placed in a desiccator having a volume of 1 l, and the desiccator was evacuated to 180 mmHg using a vacuum pump. The period of time from the start of the evacuation until the arrest of breathing was defined as Survival Time (minute).
When a mouse survived for 15 minutes or more, the survival time was recorded as being 15 minutes. Student's t-test was employed for significance analysis.

[3] = test system: experimental amnesia caused in rats by scopolamine; test: Preventive effect against experimental amnesia caused in rats by scopolamine (passive avoidance learning); assay type: in vivo, Wister male rats; conditions: administered orally (so in the source) in an amount of 0.025 mg/kg

CCCCCCCC/C=C\CCCCCCCC(=O)NC(Cc1ccccc1)C(=O)N1CCCC1C(=O)OC (stereo not drawn) [SUAM 1194, oleoyl-Phe-Pro-OMe] (Oleoyl-Phe-Pro-OMe; configuration not given here)
solubility in benzene [1]: soluble in benzene

CCCCCCCC/C=C\CCCCCCCC(=O)N[C@@H](Cc1ccccc1)C(=O)N1CCC[C@H]1C=O [SUAM 1212, oleoyl-Phe-Pro-CHO] (Oleoyl-Phe-Pro-aldehyde)
IC50 (amount of compound to achieve 50% inhibition) (prolyl endopeptidase): 0.4 ng/test tube
Avoidance time 24 hrs. later [2]: 300 s
Avoidance time 48 hrs. later [2]: 285 s
No. of amnesic rats/No. of rats tested [2]: 0/10
Percentage amnesia [2]: 0%
Survival time Ratio (Drug/Control) (ddY strain male mice; 1 mg/kg i.p.): 1.27
No. of survival/used (Drug) (ddY strain male mice; 1 mg/kg i.p.): 0/7
Survival time (Mean ± S.E.), Drug (ddY strain male mice; 1 mg/kg i.p., p < 0.05 vs control): 2.94 ± 0.27 mini
Survival time Ratio (Drug/Control) (ddY strain male mice; 10 mg/kg i.p.): 1.28
No. of survival/used (Drug) (ddY strain male mice; 10 mg/kg i.p.): 0/7
Survival time (Mean ± S.E.), Drug (ddY strain male mice; 10 mg/kg i.p., p < 0.1 vs control): 2.89 mini
anti-amnesic action (in words) [3]: strong anti-amnesic action
